Holding throughout (type): functional
Assay [1] concerns Mus musculus. Description: Compound was tested for analgesic activity by tail-flick test after subcutaneous administration in mice. Particulars: sc.
Assay [2] relates to Mus musculus. Description: Compound was tested for analgesic activity by writhing test after subcutaneous administration in mice. Particulars: sc. (An intraperitoneal irritant provokes the stretching counted in writhing tests.)
Assay [3] relates to Mus musculus. Description: Compound was tested for analgesic activity by tail-flick test after peroral administration in mice. Particulars: po. (In general: In hot-plate and tail-flick tests a longer latency is read as antinociception.)
The test system of assay [4] is Mus musculus. Description: Compound was tested for analgesic activity by writhing test after peroral administration in mice. The settings on record: po.

The structures appear in SMILES notation.

As usually defined, the ED50 is the midpoint of the dose-response relation. A higher ED50 goes with weaker potency. Turning to `CN1CC[C@]23CCCC[C@H]2[C@H]1Cc1ccc(Oc2ccc(O)cc2)cc13.Cl`, the ED50 in assay [1] stood at 6.69 mg/kg; in assay [2], 1.3 mg/kg.
Consider `Cc1ccc(Oc2ccc3c(c2)[C@@]24CCCC[C@H]2[C@@H](C3)N(C)CC4)cc1.Cl`, for which the ED50 in assay [2] is 23 mg/kg.
For the compound `CN1CC[C@]23CCCC[C@H]2[C@H]1Cc1ccc(Oc2ccccc2F)cc13.O=C(O)C(=O)O`, the results for the ED50 in assay [1] and in assay [2] were 23.3 mg/kg and 3 mg/kg, respectively.
Taken in the same sequence, the figures for `CN1CC[C@]23CCCC[C@H]2[C@H]1Cc1ccc(Oc2ccc(F)cc2)cc13` were 37.3 mg/kg and 1 mg/kg.
For `COc1ccc(Oc2ccc3c(c2)[C@@]24CCCC[C@H]2[C@@H](C3)N(C)CC4)cc1`, in that order: 25 mg/kg and 2.1 mg/kg.
Turning to `CN1CC[C@]23CCCC[C@H]2[C@H]1Cc1ccc(O)cc13.O=C(O)C(O)C(O)C(=O)O`, the ED50 was 8.5 mg/kg in assay [3], 1.4 mg/kg in assay [4], 1.21 mg/kg in assay [1] and 0.11 mg/kg in assay [2].
Taken in the same sequence, the figures for `CN1CC[C@]23CCCC[C@H]2[C@H]1Cc1ccc(Oc2ccccc2)cc13.O=C(O)C(O)C(O)C(=O)O` were 51.7 mg/kg, 2.3 mg/kg, 19.7 mg/kg and 1.25 mg/kg.
As to `CCO.CN1CC[C@]23CCCC[C@H]2[C@H]1Cc1ccc(Oc2ccccc2O)cc13.O=C(O)C(O)C(O)C(=O)O`, the results for the ED50 in assay [1] and in assay [2] were 11.4 mg/kg and 1.8 mg/kg, respectively.
Taken in the same sequence, the figures for `CCO.CN1CC[C@]23CCCC[C@H]2[C@H]1Cc1ccc(Oc2cccc(O)c2)cc13.O=C(O)C(O)C(O)C(=O)O` were 80.1 mg/kg and 9 mg/kg.
Taken in the same sequence, the figures for `CN1CC[C@]23CCCC[C@H]2[C@H]1Cc1ccc(Oc2ccccn2)cc13.O=C(O)C(O)C(O)C(=O)O` were 10.1 mg/kg and 1.1 mg/kg.
For `CN1CC[C@]23CCCC[C@H]2[C@H]1Cc1ccc(Oc2cccc(F)c2)cc13.O.O=C(O)C(O)C(O)C(=O)O`, in that order: 71 mg/kg and 1.85 mg/kg.
Turning to `COc1ccccc1Oc1ccc2c(c1)[C@@]13CCCC[C@H]1[C@@H](C2)N(C)CC3`, the ED50 in assay [1] was 24.4 mg/kg; in assay [2], 0.49 mg/kg.
In the case of `CN1CC[C@]23c4c5ccc(O)c4O[C@H]2[C@@H](O)C=C[C@H]3[C@H]1C5.CN1CC[C@]23c4c5ccc(O)c4O[C@H]2[C@@H](O)C=C[C@H]3[C@H]1C5.O=S(=O)(O)O`, the figures for the ED50 in assay [3] and in assay [2] were 31.2 mg/kg and 0.46 mg/kg, respectively.
For `COc1cccc(Oc2ccc3c(c2)[C@@]24CCCC[C@H]2[C@@H](C3)N(C)CC4)c1`, the results for the ED50 in assay [1] and in assay [2] were 39.7 mg/kg and 2.5 mg/kg, respectively.
Take `COc1ccc2c3c1O[C@H]1[C@@H](O)C=C[C@H]4[C@@H](C2)N(C)CC[C@@]341.COc1ccc2c3c1O[C@H]1[C@@H](O)C=C[C@H]4[C@@H](C2)N(C)CC[C@@]341.O.O=P(O)(O)O.O=P(O)(O)O` [CODEINE PHOSPHATE]: the ED50 in assay [3] turned out to be 119 mg/kg; in assay [4], 24 mg/kg; in assay [2] it was 2.3 mg/kg.
For `Br.COc1ccc2c(c1)[C@@]13CCCCC1[C@@H](C2)N(C)CC3` (some centres not stated) [LEVOMETHORPHAN HYDROBROMIDE], the ED50 in assay [3] is 5.27 mg/kg; in assay [4], 1.5 mg/kg; in assay [2], 0.64 mg/kg.

(Values after ChEMBL document CHEMBL1122731, “Potential synthetic codeine substitutes: (-)-3-O-aryl-N-methylmorphinans” (J Med Chem, 1984).)
